Data: US20220080025A1, “VITAMIN E AND CANCER THERAPEUTIC COMPOSITIONS AND METHODS” (University of Vermont and State Agricultural College, priority 2019, published 2022)
Converted amounts (≈) assume the structure as drawn.

Assays:
[1] = tested on: HM cells; experiment: Cell viability of HM malignant mesothelioma cells, 48 h, crystal violet staining; assay type: cell-based
Description: (§1) Studies were performed to test the effects on cell viability of mesothelial (LP9) and malignant mesothelioma (HM) cells in culture when contacted with thiostrepton (TS) or TS diluted in Vitamin E-TPGS (VitE-TPGS, D-alpha-tocopherol polyethylene glycol 1000 succinate).
(§2) Indicated cell lines were plated into 96 well plates and allowed to adhere overnight. The following day test compounds were serially diluted in duplicate wells onto cells in complete tissue culture media. VitE-TPGS was serially diluted from a starting concentration of 0.025% (w/v) in 0.9% NaCl and added to LP9 or HM cells (FIG. 1). TS, dissolved in DMSO, was diluted to a starting concentration of 20 μM into cell culture media and serially diluted or diluted from a 1.5 mM TS/DMSO/5% VitE-TPGS (33 mM)/0.9% NaCl solution to a starting concentration of 20 μM TS/0.06% VitE-TPGS and serially diluted onto LP9 or HM cells (FIG. 2). Cells were incubated with test compounds for 48 hours before determining cell number using an indirect readout of cell viability by staining residual cells with crystal violet. The inhibitory concentration (IC50) in which 50% of the cells are not viable, was determined for tested compounds.

[2] = physchem; conditions: 5% VitE-TPGS in normal saline, aqueous with cosolvent or surfactant or cyclodextrin, thermodynamic from solid
Description: (§3) This study was performed to determine the intrinsic solubility of the test article in a variety of formulation systems as detailed below.
(§4) This method measured equilibrium solubility after 24h incubation with the desired formulation mixture. The solubility of the test article in each formulation mixture was measured by comparison of the AUC of the LC/MS spectrum obtained by injection of the solution of the test article in the desired solvent to the AUC of a reference standard solution. […] The reference solution was made fresh for every time point. Data was then calculated to give % test article remaining as function of time.
(§5) 1) A stock solution of the active pharmaceutical ingredient (API) was prepared in a 1,4-dioxane at 10 mM. 2) Nineteen 200 μl portions of stock were dispensed into 19 clean 500 μl micro-centrifuge tubes and the solvent removed by a stream of nitrogen. The 19 tubes were marked with numbers 1-19. 3) Five 200 μl portions of stock were dispensed into 5 clean 200 μl micro-centrifuge tubes and the solvent removed by a stream of nitrogen; these tubes were marked: S1, S2, S3, S4 and S5 and were to be saved for quantization by LC/MS. 4) The vehicles were prepared on a w/w basis for co-solvents, and on a molar basis for salts. 5) 200 μL of each vehicle was introduced into the appropriate micro centrifuge tube 1-19, corresponding to that vehicle. The final concentration of API was 10 mM. These were the test samples. 6) The sample tubes 1-19 were sonicated for 30 min and then agitated for 24h. 7) The vessel was centrifuged and 50 μl of the supernatant was removed and diluted with 350 μl of acetonitrile for LC/MS analysis. These were the test samples. 8) Micro-centrifuge tubes S1-S5 were reconstituted immediately before analysis by adding 200 μl of acetonitrile and 200 μl od 1,4-dioxane to the tubes and sonicating for 30 min. These were the standards. 9) Before analysis all 24 tubes were centrifuged. 10) 50 μl of the clear supernatant from Sample tubes 1-19 was removed and diluted into 350 μl of acetonitrile for LC/MS analysis. 11) 100 μl of the clear supernatant from Standard tubes S1-S5 was removed and diluted into 300 μl of acetonitrile for LC/MS analysis.
(§6) 13) Quantization was based on comparison to the AUC from the stock solution and was relative.
(§7) A freshly prepared standard was used for each time point.

[3] = Equilibrium (intrinsic) solubility of the test article in formulation mixtures, 24h, LC/MS; conditions: for solubility at 24 h: aqueous with cosolvent or surfactant or cyclodextrin, thermodynamic from solid
Description: as §3, §4, §5, §6, §7

[4] = tested on: LP9 cells; experiment: Cell viability of LP9 mesothelial cells, 48 h, crystal violet staining; assay type: cell-based; conditions: VitE-TPGS (w/v) in 0.9% NaCl
Description: as §1, §2

With C=C(NC(=O)C(=C)NC(=O)c1csc(C2=N[C@@H]3c4csc(n4)[C@H]4NC(=O)c5csc(n5)[C@H]([C@](C)(O)[C@@H](C)O)NC(=O)[C@H]5CSC(=N5)/C(=C/C)NC(=O)[C@H]([C@@H](C)O)NC(=O)c5csc(n5)[C@]3(CC2)NC(=O)[C@H](C)NC(=O)C(=C)NC(=O)[C@H](C)NC(=O)[C@H]([C@@H](C)CC)N[C@@H]2C=Cc3c([C@H](C)O)cc(nc3[C@H]2O)C(=O)O[C@@H]4C)n1)C(N)=O [TS, Thiostrepton] the “Sensitivity of HM cells compared to LP9 cells” value ([1]; HM vs LP9 cells) was “more sensitive”, the solubility at 24 h [2] was 1740 µM (≈ 2900 µg/mL) and the solubility at 24 h ([3]; 1% polyacrylic acid (450,000 amw) in normal saline) was 130 µM (≈ 216 µg/mL). The solubility at 24 h ([3]; 1% polyvinylalcohol (61,000 amw) in normal saline) was 200 µM (≈ 333 µg/mL), the “Solubility (in words)” value ([3]; 1,4-dioxane and chloroform) was “freely soluble” and the solubility at 24 h ([3]; 2% Tween 80 in normal saline) was 220 µM (≈ 366 µg/mL). The solubility at 24 h ([3]; 10% Cremophore in normal saline) was 1140 µM (≈ 1900 µg/mL), the solubility at 24 h ([3]; 10% Solutol HS 15 in normal saline) was 520 µM (≈ 866 µg/mL) and the solubility at 24 h ([3]; 10% capmul in normal saline) was 50 µM (≈ 83.2 µg/mL). For the same molecule, the solubility at 24 h ([3]; 10% meglumine in normal saline) was 200 µM (≈ 333 µg/mL), the solubility at 24 h ([3]; 20% Captisol in normal saline) was 380 µM (≈ 633 µg/mL) and the solubility at 24 h ([3]; 20% Gelucire 44/14 in normal saline) was 1170 µM (≈ 1950 µg/mL). The solubility at 24 h ([3]; 20% Labrafil 1944CS in normal saline) was 490 µM (≈ 816 µg/mL), the solubility at 24 h ([3]; 20% Peceol in normal saline) was 300 µM (≈ 499 µg/mL) and the solubility at 24 h ([3]; 20% hydroxypropyl-beta-cyclodextrin in normal saline) was 440 µM (≈ 733 µg/mL). The solubility at 24 h ([3]; 20% poloxamer 188 in normal saline) was 210 µM (≈ 350 µg/mL), the solubility at 24 h ([3]; 20% transcutol in normal saline) was 660 µM (≈ 1100 µg/mL) and the solubility at 24 h ([3]; 30% Capryol 90 in normal saline) was 1470 µM (≈ 2450 µg/mL). It also gave a solubility at 24 h ([3]; 30% Labrafac PG in normal saline) of 380 µM (≈ 633 µg/mL), a solubility at 24 h ([3]; 30% Labrasol in normal saline) of 150 µM (≈ 250 µg/mL) and a solubility at 24 h ([3]; 30% polyethylene glycol 300 in normal saline) of 320 µM (≈ 533 µg/mL). For the same molecule, the “Solubility (in words)” value ([3]; aqueous solutions and a variety of organic solvents) was “fairly low solubility”.

In the case of “D-a-tocopheryl polyethylene glycol 1000 succinate [VitE-TPGS]”, the IC50 [4] is reported as 0.0014% and the IC50 ([1]; HM cells, VitE-TPGS (w/v) in 0.9% NaCl) is reported as 0.0006%.
